Test results published in patent US10780090B2, “Heteroaryl compounds useful as inhibitors of SUMO activating enzyme” (Millennium Pharmaceuticals, Inc., priority 2014, dated 2020).

Biological target: recombinant human SAE enzyme (Homo sapiens (Human), UniProt Q9UBT2)
Test: SAE HTRF enzyme assay
Assay type: biochemical
Conditions: for inhibition at 0.111 µM: read-out: Percent Inhibition
Procedure: Example 215: SAE HTRF enzyme assay
The SAE enzymatic reaction totals 50 μl and contains 50 mM HEPES Hemisodium (pH 7.5), 0.05% BSA, 5 mM MgCl2, 0.5 μM ATP, 250 μM GSH, 0.01 μM Ubc9-GST, 0.125 μM Sumo-Flag and 0.11 nM recombinant human SAE enzyme. The enzymatic reaction mixture, with and without inhibitor, Is incubated at 24° C. for 105 min in a 384-well plate before termination with […] of Stop/Detection buffer (0.1M HEPES Hemisodium pH 7.5, 0.05% Tween20, 20 mM EDTA, 410 mM KF, 0.53 nM Europium-Cryptate labeled monoclonal anti-Flag M2 Antibody (CisBio International) and 8.125 μg/ml PHYCOLINK goat anti-GST allophycocyanin (XL-APC) antibody (Prozyme)). After incubation for 2 hours at 24° C., quantification of FRET is performed on the Pherostar™ (BMG Labtech). Percentage inhibition values at a single concentration or enzyme inhibition (IC50) values are determined from those curves. One skilled in the art will appreciate that the values generated either as percentage inhibition at a single concentration or IC50 values are subject to experimental variation.

[1] = SAE inhibition at compound concentration 0.111 μM
[2] = SAE inhibition, class symbols, legend in nM

recombinant human SAE enzyme, sequence (Q9UBT2 whole entry): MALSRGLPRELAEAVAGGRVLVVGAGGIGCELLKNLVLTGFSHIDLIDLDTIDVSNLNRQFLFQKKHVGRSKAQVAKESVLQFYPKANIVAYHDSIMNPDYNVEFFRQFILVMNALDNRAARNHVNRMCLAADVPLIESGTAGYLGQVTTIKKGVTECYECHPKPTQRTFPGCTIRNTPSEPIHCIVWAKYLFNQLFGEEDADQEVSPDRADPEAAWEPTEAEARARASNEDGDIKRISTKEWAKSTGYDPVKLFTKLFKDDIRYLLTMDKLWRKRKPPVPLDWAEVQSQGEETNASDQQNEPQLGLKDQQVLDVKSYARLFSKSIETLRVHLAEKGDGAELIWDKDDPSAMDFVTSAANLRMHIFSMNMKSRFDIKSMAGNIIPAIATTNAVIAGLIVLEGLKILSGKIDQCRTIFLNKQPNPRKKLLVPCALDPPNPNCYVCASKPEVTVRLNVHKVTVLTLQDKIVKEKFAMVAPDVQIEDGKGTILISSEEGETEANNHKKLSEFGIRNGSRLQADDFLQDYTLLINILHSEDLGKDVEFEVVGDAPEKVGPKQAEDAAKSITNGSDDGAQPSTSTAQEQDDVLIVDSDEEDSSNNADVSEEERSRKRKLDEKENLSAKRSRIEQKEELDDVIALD
recombinant human SAE enzyme, sequence (Q9UBE0 whole entry partner): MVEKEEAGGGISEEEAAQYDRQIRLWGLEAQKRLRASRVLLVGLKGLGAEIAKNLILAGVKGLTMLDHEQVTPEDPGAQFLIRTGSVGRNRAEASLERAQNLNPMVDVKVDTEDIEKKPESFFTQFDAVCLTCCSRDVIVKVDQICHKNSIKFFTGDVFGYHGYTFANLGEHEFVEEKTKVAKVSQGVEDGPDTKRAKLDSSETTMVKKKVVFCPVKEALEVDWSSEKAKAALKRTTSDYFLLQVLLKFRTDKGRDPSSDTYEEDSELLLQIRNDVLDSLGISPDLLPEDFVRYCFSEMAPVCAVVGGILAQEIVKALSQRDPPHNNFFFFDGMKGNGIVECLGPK

Row | Structure (SMILES) | Percent Inhibition [1] [%] | IC50 [2] [nM] | Percent Inhibition (Concentration 0.111 μM) | IC50 (class symbols A/B/C) [nM] | inhibition at 0.111 µM (Concentration 0.111 μM) [%]
1 | Cc1sc(C(=O)c2cncnc2N[C@@H]2C[C@H](COS(N)(=O)=O)[C@@H](O)C2)cc1[C@@H]1OCCc2oc(Cl)cc21 (mixture of isomers) [I-298, [(1R,2S,4R)-4-{[5-({4-[(4R)-2-chloro-6,7-dihydro-4H-furo[3,2-c]pyran-4-yl]-5-methyl-2-thienyl}carbonyl)pyrimidin-4-yl]amino}-2-hydroxycyclopentyl]methyl sulfamate and [(1R,2S,4R)-4-{[5-({4-[(4S)-2-chloro-6,7-dihydro-4H-furo[3,2-c]pyran-4-yl]-5-methyl-2-thienyl}carbonyl)pyrimidin-4-yl]amino}-2-hydroxycyclopentyl]methyl sulfamate] | 96 | < 10 |  |  | 
2 | CO[C@H](c1cccc(Cl)c1)c1cc(C(=O)c2cncnc2N[C@@H]2C[C@H](COS(N)(=O)=O)[C@@H](O)C2)sc1Cl (mixture of isomers) [I-90, [(1R,2S,4R)-4-{[5-({5-chloro-4-[(R)-(3-chlorophenyl)(methoxy)methyl]-2-thienyl}carbonyl)pyrimidin-4-yl]amino}-2-hydroxycyclopentyl]methyl sulfamate and [(1R,2S,4R)-4-{[5-({5-chloro-4-[(S)-(3-chlorophenyl)(methoxy)methyl]-2-thienyl}carbonyl)pyrimidin-4-yl]amino}-2-hydroxycyclopentyl]methyl sulfamate] |  |  | 97 | < 10 | 
3 | Cc1sc(C(=O)c2cncnc2N[C@@H]2C[C@H](COS(N)(=O)=O)[C@@H](O)[C@@H]2F)cc1[C@H]1OCCc2ccc(Cl)cc21 (single isomer, unassigned) [I-264a, [(1R,2R,3R,4R)-4-{[5-({4-[(1S)-7-chloro-3,4-dihydro-1H-isochromen-1-yl]-5-methyl-2-thienyl}carbonyl)pyrimidin-4-yl]amino}-3-fluoro-2-hydroxycyclopentyl]methyl sulfamate or [(1R,2R,3R,4R)-4-{[5-({4-[(1R)-7-chloro-3,4-dihydro-1H-isochromen-1-yl]-5-methyl-2-thienyl}carbonyl)pyrimidin-4-yl]amino}-3-fluoro-2-hydroxycyclopentyl]methyl sulfamate] |  |  | 33 | 100 to 1000 | 
4 | NS(=O)(=O)OC[C@H]1C[C@@H](Nc2ncncc2C(=O)c2cc(C3SCCc4ccc(Cl)cc43)cs2)C[C@@H]1O (single isomer, unassigned) [I-320a, [(1R,2S,4R)-4-{[5-({4-[(1R)-7-chloro-3,4-dihydro-1H-isothiochromen-1-yl]-2-thienyl}carbonyl)pyrimidin-4-yl]amino}-2-hydroxycyclopentyl]methyl sulfamate or [(1R,2S,4R)-4-{[5-({4-[(1S)-7-chloro-3,4-dihydro-1H-isothiochromen-1-yl]-2-thienyl}carbonyl)pyrimidin-4-yl]amino}-2-hydroxycyclopentyl]methyl sulfamate] | 27 | 100 to 1000 |  |  | 
5 | NS(=O)(=O)OC[C@H]1C[C@@H](Nc2ncncc2C(=O)c2cc([C@@H]3OCCc4ccc(F)cc43)cs2)C[C@@H]1O (single isomer, unassigned) [I-267a, [(1R,2S,4R)-4-{[5-({4-[(1R)-7-fluoro-3,4-dihydro-1H-isochromen-1-yl]-2-thienyl}carbonyl)pyrimidin-4-yl]amino}-2-hydroxycyclopentyl]methyl sulfamate or [(1R,2S,4R)-4-{[5-({4-[(1S)-7-fluoro-3,4-dihydro-1H-isochromen-1-yl]-2-thienyl}carbonyl)pyrimidin-4-yl]amino}-2-hydroxycyclopentyl]methyl sulfamate] |  |  | 65 | 10 to 100 | 
6 | NS(=O)(=O)OC[C@H]1C[C@@H](Nc2ncncc2C(=O)c2cc(Cl)c([C@H](O)c3cccc(Cl)c3)s2)C[C@@H]1O (single isomer, unassigned) [I-151a, [(1R,2S,4R)-4-{[5-({4-chloro-5-[(R)-(3-chlorophenyl)(hydroxy)methyl]-2-thienyl}carbonyl)pyrimidin-4-yl]amino}-2-hydroxycyclopentyl]methyl sulfamate or [(1R,2S,4R)-4-{[5-({4-chloro-5-[(S)-(3-chlorophenyl)(hydroxy)methyl]-2-thienyl}carbonyl)pyrimidin-4-yl]amino}-2-hydroxycyclopentyl]methyl sulfamate] |  |  | 80 | 10 to 100 | 
7 | NS(=O)(=O)OCC1CC(Nc2ncncc2C(=O)c2cc(C(O)(CCO)c3cccc(Cl)c3)c(Cl)s2)CC1O (mixture of isomers) [I-49, [(1R,2S,4R)-4-{[5-({5-Chloro-4-[(1S)-1-(3-chlorophenyl)-1,3-dihydroxypropyl]-2-thienyl}carbonyl)pyrimidin-4-yl]amino}-2-hydroxycyclopentyl]methyl sulfamate and [(1R,2S,4R)-4 {[5-({5-Chloro-4[(1R)-1-(3-chlorophenyl)-1,3-dihydroxypropyl]-2-thienyl}carbonyl)pyrimidin-4-yl]amino}-2-hydroxycyclopentyl]methyl sulfamate] |  |  | 98 | < 10 | 
8 | NS(=O)(=O)OC[C@H]1C[C@@H](Nc2ncncc2C(=O)c2ccc(Cc3ccccc3)s2)[C@H](O)[C@@H]1O [I-115, [(1R,2R,3S,4R)-4-({5-[(5-benzyl-2-thienyl)carbonyl]pyrimidin-4-yl}amino)-2,3-dihydroxycyclopentyl]methyl sulfamate] |  |  |  |  | 90
9 | C[C@@]1(c2csc(C(=O)c3cncnc3N[C@@H]3C[C@H](COS(N)(=O)=O)[C@@H](O)C3)c2)OCCc2ccc(Cl)cc21 (mixture of isomers) [I-317, [(1R,2S,4R)-4-{[5-({4-[(1R)-7-chloro-1-methyl-3,4-dihydro-1H-isochromen-1-yl]-2-thienyl}carbonyl)pyrimidin-4-yl]amino}-2-hydroxycyclopentyl]methyl sulfamate and [(1R,2S,4R)-4-{[5-({4-[(1S)-7-chloro-1-methyl-3,4-dihydro-1H-isochromen-1-yl]-2-thienyl}carbonyl)pyrimidin-4-yl]amino}-2-hydroxycyclopentyl]methyl sulfamate] | 97 | < 10 |  |  | 
10 | Cc1sc(C(=O)c2cncnc2N[C@@H]2C[C@H](COS(N)(=O)=O)[C@@H](O)C2)cc1[C@H]1NCCc2ccc(Cl)cc21 [I-263b, [(1R,2S,4R)-4-{[5-({4-[(1S)-7-chloro-1,2,3,4-tetrahydroisoquinolin-1-yl]-5-methyl-2-thienyl}carbonyl)pyrimidin-4-yl]amino}-2-hydroxycyclopentyl]methyl sulfamate] |  |  |  | 10 to 100 | 89
11 | NS(=O)(=O)OC[C@H]1C[C@@H](Nc2ncncc2C(=O)c2cc(CN3CCn4ccnc4C3)cs2)C[C@@H]1O [I-190, {(1R,2S,4R)-4-[(5-{[4-(5,6-dihydroimidazo[1,2-a]pyrazin-7(8H)-ylmethyl)-2-thienyl]carbonyl}pyrimidin-4-yl)amino]-2-hydroxycyclopentyl}methyl sulfamate] |  |  |  | 10 to 100 | 77
12 | Cc1sc(C(=O)c2cncnc2N[C@@H]2C[C@H](COS(N)(=O)=O)[C@@H](O)C2)cc1[C@@H]1c2cc(Cl)ccc2CCN1C [I-306, [(1R,2S,4R)-4-[[5-[4-[(1R)-7-Chloro-2-methyl-3,4-dihydro-1H-isoquinolin-1-yl]-5-methyl-thiophene-2-carbonyl]pyrimidin-4-yl]amino]-2-hydroxy-cyclopentyl]methyl sulfamate and 2-carbonyl]pyrimidin-4-yl]amino]-2-hydroxy-cyclopentyl]methyl sulfamate] | 98 | < 10 |  |  | 
13 | C[C@H](O)c1cc(C(=O)c2cncnc2N[C@@H]2C[C@H](COS(N)(=O)=O)[C@@H](O)C2)sc1Cl (mixture of isomers) [I-226, [(1R,2S,4R)-4-{[5-({5-Chloro-4-[(1S)-1-hydroxyethyl]-2-thienyl}carbonyl)pyrimidin-4-yl]amino}-2-hydroxycyclopentyl]methyl sulfamate and [(1R,2S,4R)-4-{[5-({5-Chloro-4-[(1R)-1-hydroxyethyl]-2-thienyl}carbonyl)pyrimidin-4-yl]amino}-2-hydroxycyclopentyl]methyl sulfamate] |  |  | 33 | 100 to 1000 | 
14 | C[C@](O)(c1csc(C(=O)c2cncnc2N[C@@H]2C[C@H](COS(N)(=O)=O)[C@@H](O)[C@H]2O)c1)c1cccc(Br)n1 (single isomer, unassigned) [I-1a, [(1R,2R,3S,4R)-4-{[5-({4-[(1S)-1-(6-bromopyridin-2-yl)-1-hydroxyethyl]-2-thienyl}carbonyl)pyrimidin-4-yl]amino}-2,3-dihydroxycyclopentyl]methyl sulfamate or [(1R,2R,3S,4R)-4-{[5-({4-[(1R)-1-(6-bromopyridin-2-yl)-1-hydroxyethyl]-2-thienyl}carbonyl)pyrimidin-4-yl]amino}-2,3-dihydroxycyclopentyl]methyl sulfamate] |  |  | 96 | < 10 | 
15 | NS(=O)(=O)OC[C@H]1C[C@@H](Nc2ncncc2C(=O)c2cc(Cc3cccc(Br)n3)cs2)C[C@@H]1O [I-53, [(1R,2S,4R)-4-{[5-({4-[(6-bromopyridin-2-yl)methyl]-2-thienyl}carbonyl)pyrimidin-4-yl]amino}-2-hydroxycyclopentyl]methyl sulfamate] |  |  |  |  | 99
